Test results reported in patent US12606541B2, “PPARg modulators and methods of use” (Eisai R&D Management Co., Ltd., priority 2020, dated 2026).

Target: T1, His6-TEV-PPARγ-(234-505) (Homo sapiens, UniProt P37231)
T1 construct: The His6-TEV-PPARγ-(234-505) protein for assay was expressed and purified; TEV cleavage site (N); made in house
T1 sequence (P37231 234-505): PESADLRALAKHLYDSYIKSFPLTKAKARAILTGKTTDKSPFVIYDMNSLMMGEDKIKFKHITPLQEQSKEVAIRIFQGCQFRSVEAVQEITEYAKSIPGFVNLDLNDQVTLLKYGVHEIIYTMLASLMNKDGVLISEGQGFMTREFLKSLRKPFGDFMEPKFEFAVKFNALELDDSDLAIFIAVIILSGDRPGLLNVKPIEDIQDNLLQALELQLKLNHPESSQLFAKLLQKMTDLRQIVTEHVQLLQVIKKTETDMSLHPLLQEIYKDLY
Assay: TR-FRET Assay to Measure Co-R Peptide Recruitment to PPARγ
Format: biochemical
Settings: Co-R peptide recruitment to PPARγ; read-out: TR-FRET AC50
How it was run: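 His-tagged PPARγ (or controls) was preincubated with compound for 20 minutes at room temperature, then 5 nM anti-His terbium antibody and 200 nM FITC-labeled SMRT-ID2 corepressor peptide (final) were added for a further hour. TR-FRET signal was normalized to percent response using 500 nM T0070907 and DMSO controls.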

SMILES | AC50
COc1cc(-c2cc(C(=O)N3CCC(C(=O)NCc4cccc(C)n4)CC3)n[nH]2)c(Cl)cn1 [1-[5-(5-chloro-2-methoxypyridin-4-yl)-1H-pyrazole-3-carbonyl]-N-[(6-methylpyridin-2-yl)methyl]piperidine-4-carboxamide] | > 1000 nM
CN(C)[C@@H]1CCN(C(=O)C2CCN(C(=O)c3cc(-c4ccncc4)[nH]n3)CC2)C1 [(3R)—N,N-dimethyl-1-{1-[5-(pyridin-4-yl)-1H-pyrazole-3-carbonyl]piperidine-4-carbonyl}pyrrolidin-3-amine] | > 1000 nM
O=C(c1cc(-c2ccncc2)[nH]n1)N1CCC(C(=O)N2CCC(c3ccccc3)CC2)CC1 [4-{3-[4-(4-phenylpiperidine-1-carbonyl)piperidine-1-carbonyl]-1H-pyrazol-5-yl}pyridine] | > 1000 nM
COc1cc(-c2cc(C(=O)N3CC4CCC(C3)C4C(=O)NCc3cccc(Cl)c3)n[nH]2)c(F)cn1 (stereo not drawn) [N-[(3-chlorophenyl)methyl]-3-[5-(5-fluoro-2-methoxypyridin-4-yl)-1H-pyrazole-3-carbonyl]-3-azabicyclo[3.2.1]octane-8-carboxamide] | > 1000 nM
C[C@H](NC(=O)C1CCN(C(=O)c2cc(-c3ccncc3)[nH]n2)CC1)c1ccccc1 [N-[(1S)-1-phenylethyl]-1-[5-(pyridin-4-yl)-1H-pyrazole-3-carbonyl]piperidine-4-carboxamide] | > 1000 nM
CC1CCC(NC(=O)C2CCN(C(=O)c3cc(-c4ccncc4C#N)[nH]n3)CC2)CC1 (stereo not drawn) [1-[5-(3-cyanopyridin-4-yl)-1H-pyrazole-3-carbonyl]-N-(4-methylcyclohexyl)piperidine-4-carboxamide] | > 1000 nM
O=C(Nc1ccc2c(c1)OCCO2)C1CCCN(C(=O)c2cc(-c3ccncc3)[nH]n2)C1 (stereo not drawn) [N-(2,3-dihydro-1,4-benzodioxin-6-yl)-1-[5-(pyridin-4-yl)-1H-pyrazole-3-carbonyl]piperidine-3-carboxamide] | > 1000 nM
CCC1(CNC(=O)C2CCN(C(=O)c3cc(-c4cc(OC)ncc4Cl)[nH]n3)CC2)COC1 [1-[5-(5-chloro-2-methoxypyridin-4-yl)-1H-pyrazole-3-carbonyl]-N-[(3-ethyloxetane-3-yl)methyl]piperidine-4-carboxamide] | > 1000 nM
COc1cc(-c2cc(C(=O)N3CC[C@@]4(C(=O)NCc5cccc(Cl)c5)C[C@@H]34)n[nH]2)c(Cl)cn1 (relative stereo) [rel-(1R,5R)-2-[5-(5-chloro-2-methoxypyridin-4-yl)-1H-pyrazole-3-carbonyl]-N-[(3-chlorophenyl)methyl]-2-azabicyclo[3.1.0]hexane-5-carboxamide] | > 1000 nM
CC1CCC(NC(=O)C2CCN(C(=O)c3cc(-c4ccncn4)[nH]n3)CC2)CC1 (stereo not drawn) [N-(4-methylcyclohexyl)-1-[5-(pyrimidin-4-yl)-1H-pyrazole-3-carbonyl]piperidine-4-carboxamide] | > 1000 nM
N#C[C@H]1CC[C@@H](NC(=O)C2CCN(C(=O)c3cc(-c4ccncc4)[nH]n3)CC2)CC1 | > 1000 nM
COc1cc(-c2cc(C(=O)N3CCC(C(=O)NCc4cn5cccnc5n4)CC3)n[nH]2)c(Cl)cn1 [1-[5-(5-chloro-2-methoxypyridin-4-yl)-1H-pyrazole-3-carbonyl]-N-({imidazo[1,2-a]pyrimidin-2-yl}methyl)piperidine-4-carboxamide] | > 1000 nM
CCc1csc(CNC(=O)C2CCN(C(=O)c3cc(-c4ccncc4)[nH]n3)CC2)n1 [N-[(4-ethyl-1,3-thiazol-2-yl)methyl]-1-[5-(pyridin-4-yl)-1H-pyrazole-3-carbonyl]piperidine-4-carboxamide] | > 1000 nM
Cc1cnccc1NC(=O)C1CCN(C(=O)c2cc(-c3ccncc3)[nH]n2)CC1 [N-(3-methylpyridin-4-yl)-1-[5-(pyridin-4-yl)-1H-pyrazole-3-carbonyl]piperidine-4-carboxamide] | > 1000 nM
COc1cc(-c2cc(C(=O)N3C[C@H]4CC[C@@H]3CC4C(=O)NCc3cccc(Cl)c3)n[nH]2)c(F)cn1 (relative stereo) [(1R,4S,5R*)—N-[(3-chlorophenyl)methyl]-2-[5-(5-fluoro-2-methoxypyridin-4-yl)-1H-pyrazole-3-carbonyl]-2-azabicyclo[2.2.2]octane-5-carboxamide] | > 1000 nM
COc1cc(-c2cc(C(=O)N3CCC(C(=O)N[C@@H]4C[C@@H](C)Oc5ccccc54)CC3)n[nH]2)c(Cl)cn1 [1-[5-(5-chloro-2-methoxypyridin-4-yl)-1H-pyrazole-3-carbonyl]-N-[(2R,4R)-2-methyl-3,4-dihydro-2H-1-benzopyran-4-yl]piperidine-4-carboxamide] | > 1000 nM

The next lines start with the values.

AC50 | SMILES
> 1000 nM | COc1cc(-c2cc(C(=O)N3CCC(C(=O)NCC4COCCO4)CC3)n[nH]2)c(Cl)cn1 (stereo not drawn) [1-[5-(5-chloro-2-methoxypyridin-4-yl)-1H-pyrazole-3-carbonyl]-N-[(1,4-dioxan-2-yl)methyl]piperidine-4-carboxamide]
> 1000 nM | COc1cc(-c2cc(C(=O)N3CCC(C(=O)NC4CC4)CC3)n[nH]2)c(Cl)cn1 [1-[5-(5-chloro-2-methoxypyridin-4-yl)-1H-pyrazole-3-carbonyl]-N-cyclopropylpiperidine-4-carboxamide]
> 1000 nM | O=C(NCCc1ccccc1)C1CCN(C(=O)c2cc(-c3ccncc3)[nH]n2)CC1 [N-(2-phenylethyl)-1-[5-(pyridin-4-yl)-1H-pyrazole-3-carbonyl]piperidine-4-carboxamide]
> 1000 nM | O=C(NC1CCC(CCO)CC1)C1CCN(C(=O)c2cc(-c3ccncc3)[nH]n2)CC1 (stereo not drawn) [N-[4-(2-hydroxyethyl)cyclohexyl]-1-[5-(pyridin-4-yl)-1H-pyrazole-3-carbonyl]piperidine-4-carboxamide]
> 1000 nM | COc1cc(-c2cc(C(=O)N3CCC(C(=O)NCC4CN(C)C4)CC3)n[nH]2)c(Cl)cn1 [1-[5-(5-chloro-2-methoxypyridin-4-yl)-1H-pyrazole-3-carbonyl]-N-[(1-methylazetidin-3-yl)methyl]piperidine-4-carboxamide]
> 1000 nM | COc1ccnc(NC(=O)C2CCN(C(=O)c3cc(-c4ccncc4)[nH]n3)CC2)c1 [N-(4-methoxypyridin-2-yl)-1-[5-(pyridin-4-yl)-1H-pyrazole-3-carbonyl]piperidine-4-carboxamide]
> 1000 nM | CC(C)(C)c1csc(CNC(=O)C2CCN(C(=O)c3cc(-c4ccncc4)[nH]n3)CC2)n1 [N-[(4-tert-butyl-1,3-thiazol-2-yl)methyl]-1-[5-(pyridin-4-yl)-1H-pyrazole-3-carbonyl]piperidine-4-carboxamide]
> 1000 nM | COc1cc(-c2cc(C(=O)N3CCC(C(=O)NCc4c(C)nc5cc(=O)[nH]n5c4C)CC3)n[nH]2)c(Cl)cn1 [1-[5-(5-chloro-2-methoxypyridin-4-yl)-1H-pyrazole-3-carbonyl]-N-({5,7-dimethyl-2-oxo-1H,2H-pyrazolo[1,5-a]pyrimidin-6-yl}methyl)piperidine-4-carboxamide]
> 1000 nM | O=C(NCc1ccccc1Cl)C1CCN(C(=O)c2cc(-c3cccnc3)[nH]n2)CC1 [N-[(2-chlorophenyl)methyl]-1-[5-(pyridin-3-yl)-1H-pyrazole-3-carbonyl]piperidine-4-carboxamide]
> 1000 nM | CC1CCC(NC(=O)C2CCN(C(=O)c3cc(-c4ccnc(OC(F)F)c4)[nH]n3)CC2)CC1 (stereo not drawn) [1-{5-[2-(difluoromethoxy)pyridin-4-yl]-1H-pyrazole-3-carbonyl}-N-(4-methylcyclohexyl)piperidine-4-carboxamide]
> 1000 nM | CS(=O)(=O)N1CCC(NC(=O)C2CCN(C(=O)c3cc(-c4ccncc4)[nH]n3)CC2)CC1 [N-(1-methanesulfonylpiperidin-4-yl)-1-[5-(pyridin-4-yl)-1H-pyrazole-3-carbonyl]piperidine-4-carboxamide]
> 1000 nM | COc1cc(-c2cc(C(=O)N3CCC(C(=O)NC4(c5ccccc5)CC4)CC3)n[nH]2)c(F)cn1 [1-[5-(5-fluoro-2-methoxypyridin-4-yl)-1H-pyrazole-3-carbonyl]-N-(1-phenylcyclopropyl)piperidine-4-carboxamide]
> 1000 nM | COc1cc(-c2cc(C(=O)N3CCC(C(=O)NCC4CCCO4)CC3)n[nH]2)c(Cl)cn1 (stereo not drawn) [1-[5-(5-chloro-2-methoxypyridin-4-yl)-1H-pyrazole-3-carbonyl]-N-[(oxolan-2-yl)methyl]piperidine-4-carboxamide]
> 1000 nM | COc1cc(-c2cc(C(=O)N3CCC(C(=O)NC4CCC(O)C4)CC3)n[nH]2)c(Cl)cn1 (stereo not drawn) [1-[5-(5-chloro-2-methoxypyridin-4-yl)-1H-pyrazole-3-carbonyl]-N-(3-hydroxycyclopentyl)piperidine-4-carboxamide]
> 1000 nM | COc1cc(-c2cc(C(=O)N3CCC(C(=O)NC4CCC(F)(F)CC4)CC3)n[nH]2)ccn1 [N-(4,4-difluorocyclohexyl)-1-[5-(2-methoxypyridin-4-yl)-1H-pyrazole-3-carbonyl]piperidine-4-carboxamide]
> 1000 nM | COc1cc(-c2cc(C(=O)N3CCC(C(=O)NC45CCC(C)(C4)OC5)CC3)n[nH]2)c(Cl)cn1 (stereo not drawn) [1-[5-(5-chloro-2-methoxypyridin-4-yl)-1H-pyrazole-3-carbonyl]-N-{1-methyl-2-oxabicyclo[2.2.1]heptan-4-yl}piperidine-4-carboxamide]
> 1000 nM | COc1cc(-c2cc(C(=O)N3CCC(C(=O)NCC4OCC4(C)C)CC3)n[nH]2)c(Cl)cn1 (stereo not drawn) [1-[5-(5-chloro-2-methoxypyridin-4-yl)-1H-pyrazole-3-carbonyl]-N-[(3,3-dimethyloxetan-2-yl)methyl]piperidine-4-carboxamide]
